Reference: patent US7943658B2, “Indole indane amide compounds useful as CB2 agonists and method” (Bristol-Myers Squibb Company, priority 2007, dated 2011)

Assays:
[1] = target: T1, CB2/CHO cell membrane proteins (Homo sapiens, UniProt P34972); test: GTPgS binding assay; assay type: biochemical; settings: [35S]GTPγS, CB2/CHO cell membranes
T1 construct: expressed in transfected cells; host or cells: CHO cells (membranes)
Method: Add 50 ul of reaction mixture containing 2 ug of CB2/CHO cell membrane proteins, 10 ul WGA-PVT beads (20 mg/ml), and 5 uM GDP in assay buffer (20 mM HEPES pH 7.4, 100 mM NaCl, 1 mM EDTA, 10 mM MgCl2, 10 ug/ml saponin, 0.25% BSA, and 1 uM leupeptin) into each well in 96 well white plate (Corning 3693, VWR#29444-312). Add 1 ul of testing compound into test, 1 ul of DMSO into basal, 1 ul of 200 uM CP55,940 into 100% activation, 1 ul of 1 mM cold GTPγS into NSB wells, respectively. Dilute [^35S]GTPγS (1:12.5 pre-diluted 1 uCi/ul stock, NEG030H, NEN) 1:1350 in binding buffer and add 25 ul into each well (200 pM final). Incubate at RT for 90 min and spin the plate at 1000 rpm for 5 min before counting with TopCount for 1-2 min.

hCB2 receptors = target: T2, hCB2 receptors (Homo sapiens, UniProt P34972); test: Filtration binding assay, [3H]CP55,940 displacement; settings: membrane proteins or CHO cells expressing hCB2, read-out: CB2 binding Ki
T2 construct: expressed in transfected cells; host or cells: CHO cells
Method: Compound dilutions were carried out in duplicate in binding buffer [25 mM HEPES pH 7.4, 150 mM NaCl, 1 mM EDTA, 2 mM MgCl2, 0.25% BSA, […]]. Mix binding buffer, membrane proteins (or CHO cells expressing hCB2 receptors) together. Dispense 75 ul of mixture into each well in 96 well plates. Add 1 ul of drug in DMSO, or DMSO alone into each well. 1:500-1000 dilute the hot ligand [^3H]CP55,940 (specific activity=120 Ci/mmol; PerkinElmer Life and Analytical Sciences) in binding buffer and add 25 ul per well with either 5 ug/well cell membrane or 50000 cells/well. After incubation at room temperature for 2 hours, transfer the binding reaction onto filtration plates (UniFilter CF/C filter plate presoaked with 0.3% polyethylenimine; PerkinElmer Life and Analytical Sciences) using Packard Cell Harvester. Wash the filter with quarter strength of PBS (1:4 dilution of regular PBS with H2O) 8 times. Air dry the filter, add 40 ul MicroScint20 into each well, seal the top, and count with the TopCount. Bound radioactivity was analyzed for Ki using nonlinear regression analysis (Excel Xfit) with the Kd values for [3H]CP55,940 determined from saturation experiments.

T1 sequence (P34972 whole entry): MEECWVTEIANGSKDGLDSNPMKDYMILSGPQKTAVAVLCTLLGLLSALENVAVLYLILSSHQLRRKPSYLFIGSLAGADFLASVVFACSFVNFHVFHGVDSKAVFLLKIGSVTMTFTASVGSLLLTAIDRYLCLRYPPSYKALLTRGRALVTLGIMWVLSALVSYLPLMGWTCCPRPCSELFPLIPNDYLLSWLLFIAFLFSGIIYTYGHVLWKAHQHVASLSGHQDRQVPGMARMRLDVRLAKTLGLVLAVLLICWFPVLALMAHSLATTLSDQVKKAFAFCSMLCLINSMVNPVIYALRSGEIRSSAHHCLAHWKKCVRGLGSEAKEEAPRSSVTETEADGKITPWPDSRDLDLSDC
T2 sequence (P34972 whole entry): as above

Row | EC50 [1] [nM] | Ki (hCB2 receptors) [nM] | SMILES
1 | 4.5 ± 1.2 | 7.6 ± 1.7 | Cn1c(C(=O)N[C@H]2c3cc(C#N)ccc3CC2(C)C)cc2cc(Cl)ccc21 [Example 3, (R)-5-Chloro-N-(6-cyano-2,2-dimethyl-2,3-dihydro-1H-inden-1-yl)-1-methyl-1H-indole-2-carboxamide]
2 |  | 2.4 ± 1.1 | CC1(C)Cc2ccc(C#N)cc2[C@@H]1NC(=O)c1cc2ccccc2[nH]1 [Example 6, (R)—N-(6-Cyano-2,2-dimethyl-2,3-dihydro-1H-inden-1-yl)-1H-indole-2-carboxamide]
3 |  | 0.24 ± 0.12 | CC1(C)Cc2ccc(C#N)cc2[C@@H]1NC(=O)c1cc2cc(F)ccc2[nH]1 [Example 7, (R)—N-(6-Cyano-2,2-dimethyl-2,3-dihydro-1H-inden-1-yl)-5-fluoro-1H-indole-2-carboxamide]
4 |  | 35 ± 12 | COC(=O)c1ccc2c(c1)[C@H](NC(=O)c1cc3cc(Cl)ccc3[nH]1)C(C)(C)C2 [Example 11, (R)-Methyl-3-(5-chloro-1H-indole-2-carboxamido)-2,2-dimethyl-2,3-dihydro-1H-indene-5-carboxylate]
5 |  | 50 ± 16 | COCCNc1ccc2[nH]c(C(=O)N[C@H]3c4cc(C#N)ccc4CC3(C)C)cc2c1 [Example 10, (R)—N-(6-Cyano-2,2-dimethyl-2,3-dihydro-1H-inden-1-yl)-5-(2-methoxyethylamino)-1H-indole-2-carboxamide]
6 |  | 4.2 ± 1.6 | CC1(C)Cc2ccc(C#N)cc2[C@@H]1NC(=O)c1cc2cc([N+](=O)[O-])ccc2[nH]1 [Example 8, (R)—N-(6-Cyano-2,2-dimethyl-2,3-dihydro-1H-inden-1-yl)-5-nitro-1H-indole-2-carboxamide]
7 | 7.8 ± 2.5 | 39 ± 14 | CC1(C)Cc2ccc(C#N)cc2[C@@H]1NC(=O)c1cc2cc(Cl)ccc2n1CCN1CCOCC1 [Example 5, (R)-5-Chloro-N-(6-cyano-2,2-dimethyl-2,3-dihydro-1H-inden-1-yl)-1-(2-morpholinoethyl)-1H-indole-2-carboxamide]
8 |  | 39 ± 14 | CC1(C)Cc2ccc(C#N)cc2[C@@H]1NC(=O)c1cc2cc(N)ccc2[nH]1 [Example 9, (R)-5-Amino-N-(6-cyano-2,2-dimethyl-2,3-dihydro-1H-inden-1-yl)-1H-indole-2-carboxamide]
9 | 8.1 ± 2.2 | 60 ± 26 | CN(C)CCn1c(C(=O)N[C@H]2c3cc(C#N)ccc3CC2(C)C)cc2cc(Cl)ccc21 [Example 4, (R)-5-Chloro-N-(6-cyano-2,2-dimethyl-2,3-dihydro-1H-inden-1-yl)-1-(2-(dimethylamino)ethyl)-1H-indole-2-carboxamide]
10 | 2.4 ± 0.55 | 3 | CC1(C)Cc2ccc(C#N)cc2[C@@H]1NC(=O)c1cc2cc(O)ccc2[nH]1 [Example 1, (R)—N-(6-Cyano-2,2-dimethyl-2,3-dihydro-1H-inden-1-yl)-5-hydroxy-1H-indole-2-carboxamide]
11 |  | 1590 | CC1(C)Cc2ccc(C#N)cc2[C@H]1NC(=O)c1cc2cc(O)ccc2[nH]1 [Example 1A, (S)—N-(6-Cyano-2,2-dimethyl-2,3-dihydro-1H-inden-1-yl)-5-hydroxy-1H-indole-2-carboxamide]
12 | 2.2 ± 0.48 | 0.71 ± 0.18 | CC1(C)Cc2ccc(C#N)cc2[C@@H]1NC(=O)c1cc2cc(Cl)ccc2[nH]1 [Example 2, (R)N-(6-Cyano-2,2-dimethyl-2,3-dihydro-1H-inden-1-yl)-5-chloro-1H-indole-2-carboxamide]
